From patent US6841661B2, “Glycopeptide antibacterial compounds, compositions containing same and methods of using same” (Princeton Univerisity, priority 1999, dated 2005)
≈ marks a conversion by molar mass, not a printed value. Like-named read-outs stand apart in the source and are kept apart here.

What was measured:
[1] = test system: MSSA MB2985 (Smith isolate); experiment: In vitro MIC panel assay, without and with Human Serum Albumin; format: cell-based, Staphylococcus aureus
Text: (§1) National Committee for Clinical Laboratory Standards (NCCLS) guidelines [Methods for Dilution Antimicrobial Susceptibility Tests for Bacteria that Grow Aerobically-Fourth Edition; Approved Standard (NCCLS Document M7-A4, January 1997)] are used to establish the assay, although variations are made to optimize the published method according to the specific needs of the present investigation.
(§2) The test panel currently includes eight enterococci and 13 staphylococci, which are selected based upon their antibiotic susceptibility profiles. The methicillin-sensitive Staphylococcus aureus (MSSA) strain MB2985 (Smith isolate) is used to assesses the potential for serum protein binding of the compounds. The paired Gram-negative strains ASP #49 (envA-) and ASP #50 (envA+) (M. Salvatore/N. Lee) are included to judge membrane effects. Table 3 presents a detailed description of the strains included in the panel, including some of the sources of the strains of bacteria.
The glycopeptide antibiotic teicoplanin is included whenever possible. […]
The number of CFU/mL is determined on BHI agar plates, although this is not done routinely because titers of overnight cultures are relatively constant. […]

[2] = test system: CL 4931, CL 5053, CL 5242 and CL 4877; format: cell-based, E. faecium, E. faecalis
In short: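 NCCLS M7-A4-based broth microdilution with twofold serial dilutions, incubated at 35° C; medium BHI for enterococci and VISA/MRSA, cation-adjusted Mueller-Hinton for E. coli. Inoculum about 1-5×10^6 CFU/ml (enterococci) or 3-7×10^5 CFU/ml (others); MIC is lowest concentration with no visible growth, read at 18-20 hr for E. coli, 22-24 hr otherwise.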

MRCNS CL 546 (S. hom.) = experiment: In vitro MIC panel assay (NCCLS broth microdilution); format: cell-based
Text: as §1, §2
(§3) The glycopeptide antibiotic teicoplanin is included whenever possible.
(§4) TSB, containing 10% HS* for vancomycin intermediate S. aurcus/methicillin-resistant S. aureus (VISA/MRSA) strains, is inoculated from an appropriate source (frozen broth or agar slant) and grown approximately 17 hr at 35° C. with shaking at 220 rpm. Cultures are grown in tubes with a volume of 5 ml for enterococci and 2 ml for all other strains.
(§5) Four milliliter (4 ml) overnight culture is added to 36 ml physiological saline to obtain tenfold dilutions (enterococci). Overnight culture (0.4 ml) is added to 39.6 ml saline to obtain 100-fold dilutions (all strains except enterococci). Diluted cultures are maintained on ice until time of inoculation of test plates.
(§6) The number of CFU/mL is determined on BHI agar plates, although this is not done routinely because titers of overnight cultures are relatively constant. The test media include: • BHI for enterococci and VISA/MRSA; • MH II (i.e., cation-adjusted Mueller-Hinton broth) for MRS, MSS and E. coli.; • MH II+HSA for MSSA is prepared as follows: • a. 2×MHII+86mg/ml HSA • b. Dissolve 4.3 g HSA in 50 ml autoclaved 2x MH II. • c. pH to 7.0 by adding 2M MOPS, sodium. • d. Filter sterilize using 0.22 μm Coming cellulose acetate filter, used because of reported low protein binding. • e. 1×MH II+43 mg/ml HSA • f. Dilute the 2×medium twofold and filter as above. 5.8.6. Preparation of Test Plates
(§7) Using a Denley liquid handling system (or similar automatic device), 100 μ1×medium is added to each well in columns 2-12 of a 96-well microtiter dish. Using a multichannel pipettor, 100 μl 2×medium is added to each well in column 1. Plates may be filled on the day prior to assay, wrapped in plastic bags and refrigerated.
(§8) Vancomycin, Schering 29482, and teicoplanin are prepared on a weight per volume basis using 10 mM 3-(N-morpholino)propane-sulfonic acid (MOPS) buffer pH 7. Test compounds are received in solution in appropriate solvent (typically as 1 mg/ml in DMSO) or are dissolved in appropriate solvent prior to further dilution in 10 mM MOPS buffer, ph7. Consistent with NCCLS guidelines, antibiotics are handled aseptically but are not otherwise sterilized.
(§9) 100 μl appropriately diluted antibiotic solution is added to the first well of the designated row of the 96-well microtiter dish and serially diluted by twofold across the row using the Denley liquid handling system. With the aid of a Dynatech NEC 2000 inoculator, each well of the microtiter dish is inoculated with 1.5 μl diluted overnight culture, yielding approximately 1-5×10^6 CFU/ml for enterococci and approximately 3-7×10^5 CFU/ml for all other strains. Dishes are placed in stacks of no more than five, wrapped in plastic bags and incubated at 35° C. • Indication of result(s) type (% INH, IC50, Zone size, etc.) • MIC=minimum inhibitory concentration ps 5.8.9. Interpretation of the Results on the Basis of Activity […]

MRCNS CL 202 (S. haem.) = experiment: as above; format: cell-based
Text: as §1, §2, §3, §4, §5, §6, §7, §8, §9

[3] = test system: E. gallinarum CL 4886 (VanC); experiment: as above; format: cell-based; conditions: Enterococcus gallinarum
Text: as §1, §2, §3, §4, §5, §6, §7, §8, §9

MRCNS CL 227 (S. hom.) = experiment: as above; format: cell-based
Text: as §1, §2, §3, §4, §5, §6, §7, §8, §9

E. faecium RLA1 = experiment: as above; format: cell-based; conditions: Enterococcus faecium
Text: as §1, §2, §3, §4, §5, §6, §7, §8, §9

E. coli ASP #50 (envA+) = experiment: as above; format: cell-based; conditions: Escherichia coli
Text: as §1, §2, §3, §4, §5, §6, §7, §8, §9

MRSA CL 3033 = experiment: as above; format: cell-based; conditions: Staphylococcus aureus
Text: as §1, §2, §3, §4, §5, §6, §7, §8, §9

E. coli ASP #49 (envA-) = experiment: as above; format: cell-based; conditions: Escherichia coli
Text: as §1, §2, §3, §4, §5, §6, §7, §8, §9

MRSA COL = experiment: as above; format: cell-based; conditions: Staphylococcus aureus
Text: as §1, §2, §3, §4, §5, §6, §7, §8, §9

MRCNS CL 171 (S. haem.) = experiment: as above; format: cell-based
Text: as §1, §2, §3, §4, §5, §6, §7, §8, §9

MRCNS CL 3069 (S. epi.) = experiment: as above; format: cell-based
Text: as §1, §2, §3, §4, §5, §6, §7, §8, §9

E. faecalis MB2864 = experiment: as above; format: cell-based; conditions: Enterococcus faecalis
Text: as §1, §2, §3, §4, §5, §6, §7, §8, §9

[4] = test system: E. faecalis CL 5244 (VanB); experiment: as above; format: cell-based; conditions: Enterococcus faecalis
Text: as §1, §2, §3, §4, §5, §6, §7, §8, §9

% Plasma Bound = format: in vitro ADME

For `CN[C@H](CC(C)C)C(=O)N[C@H]1C(=O)N[C@@H](CC(N)=O)C(=O)N[C@H]2C(=O)N[C@H]3C(=O)N[C@H](C(=O)N[C@H](C(=O)O)c4cc(O)cc(O)c4-c4cc3ccc4O)[C@H](O)c3ccc(c(Cl)c3)Oc3cc2cc(c3O[C@@H]2O[C@H](CO)[C@@H](O)[C@H](O)[C@H]2O[C@H]2C[C@](C)(N)[C@H](O)[C@H](C)O2)Oc2ccc(cc2Cl)[C@H]1O` [Vancomycin, vancomycin, reference compound], the MIC ([1]; MSSA MB2985 + HSA, MH II broth ctg. 43 mg/ml Human Serum Albumin Frac. V) was 1 µg/mL, the “N-fold MIC inc. + HSA” value ([1]; MSSA MB2985, MIC with HSA relative to without) was “(1) fold” and the Mean ([2]; Table 9, mean MIC over CL4931, CL5053, CL5242, CL4877) was 1664.0. The Mean ([2]; Table 10, mean MIC over CL4931, CL5053, CL5242, CL4877) was 1536.0, the Mean ([2]; mean of CL4931, CL5053, CL5242, CL4877, unit not given) was 1664.0 and the MIC (MRCNS CL 546 (S. hom.)) was 1 µg/mL (≈ 0.69 µM). It also gave an MIC (MRCNS CL 202 (S. haem.)) of 2 µg/mL (≈ 1.38 µM), an MIC [3] of 16 µg/mL (≈ 11 µM) and an MIC (MRCNS CL 227 (S. hom.)) of 1 µg/mL (≈ 0.69 µM). It also gave an MIC (E. faecium RLA1) of 2 µg/mL (≈ 1.38 µM), an MIC (E. coli ASP #50 (envA+)) of 256 µg/mL (≈ 177 µM) and an MIC (MRSA CL 3033) of 0.5 to 1 µg/mL (≈ 0.345 to 0.69 µM). The MIC (E. coli ASP #49 (envA-)) was 32 µg/mL (≈ 22.1 µM), the MIC (MRSA COL) was 1 µg/mL (≈ 0.69 µM) and the MIC (MRCNS CL 171 (S. haem.)) was 2 µg/mL (≈ 1.38 µM). For the same molecule, the MIC (MRCNS CL 3069 (S. epi.)) was 2 µg/mL (≈ 1.38 µM), the MIC (E. faecalis MB2864) was 2 µg/mL (≈ 1.38 µM) and the MIC [4] was 32 µg/mL (≈ 22.1 µM). For the same molecule, the “% Plasma Bound” value (% Plasma Bound) was 55%.
